Experimental data taken from patent US20230100838A1 (Revolution Medicines, Inc., priority 2019, published 2023).

Columns and labels:
Assay type in all cases: binding
[1] = target: T1, GDP-loaded K-Ras (1-169) G12D, C51S, C80L, C118S (Homo sapiens, UniProt P01116, C118S/C51S/C80L/G12D); assay: K-Ras G12D(GDP) cross-linking assay (conjugate formation, TOF mass spectrometry); parameters: key: 0: No observed x-linking; +: 0 < x ≤ 20; ++: 20 < x ≤ 40; +++: 40 < x ≤ 100; details: percent covalently modified K-Ras by MS, room temperature, typical compound conc. 2, 10, 25 μM, endpoints 1 and 24 h
T1 construct: GDP-loaded K-Ras (1-169) G12D, C51S, C80L, C118S
Procedure, shortened: (§1)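 5 μM protein (final, from 50 μM) in HEPES/NaCl/MgCl2 buffer pH 7.4 with compound typically at 2, 10 and 25 μM, room temperature, 1 and 24 h endpoints; formic acid quench. Intact-protein LC–TOF MS; percent modification is covalent adduct peak height over total K-Ras peak height.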

[2] = target: T2, GDP-loaded K-Ras (1-169) C51S, C80L, C118S (Homo sapiens, UniProt P01116, C118S/C51S/C80L); assay: K-Ras WT (GDP) cross-linking assay (conjugate formation, TOF mass spectrometry); parameters: key: 0: No observed x-linking; +: 0 < x ≤ 20; ++: 20 < x ≤ 40; +++: 40 < x ≤ 100; details: percent covalently modified K-Ras by MS, room temperature, typical compound conc. 2, 10, 25 μM, endpoints 1 and 24 h
T2 construct: GDP-loaded K-Ras (1-169) C51S, C80L, C118S
Procedure, shortened: as §1

K-Ras G12S = K-Ras G12S (Homo sapiens, UniProt P01116, G12S); assay: K-Ras G12S cross-linking assay (comparable procedure, conjugate formation, TOF mass spectrometry); parameters: key: 0: No observed x-linking
Procedure, shortened: as §1

[3] = Table 5, percent covalently modified K-Ras by MS
[4] = Table 4, percent covalently modified K-Ras by MS

SMILES	G12D x-linking (%) ([1]; Table 5)	WT x-linking (%) ([2]; Table 5)	G12S x-linking (%) (K-Ras G12S; [3])	G12D x-linking (%) ([1]; Table 4)	WT x-linking (%) ([2]; Table 4)	G12S x-linking (%) (K-Ras G12S; [4])
Cc1cccc2cccc(N3CCc4c(nc(OC[C@@H]5CCCN5C)nc4N4CCC(N=C=NCCCn5ccnc5)CC4)C3)c12 [Example 88, N-(3-(1H-imidazol-1-yl)propyl)-N-(1-(7-(8-methylnaphthalen-1-yl)-2-(((S)-1-methylpyrrolidin-2-yl)methoxy)-5,6,7,8-tetrahydropyrido[3,4-d]pyrimidin-4-yl)piperidin-4-yl)methanediimine]	+++ (40 < x ≤ 100)	++ (20 < x ≤ 100)	++ (10 < x ≤ 100)			
Cc1ccnc(C(C)C)c1-n1c(=O)nc(N(C)CCCN=C=NCc2ccccc2)c2cc(F)c(-c3ccccc3F)nc21 [Example 57]				++ (20 < x ≤ 40)	+ (0 < x ≤ 20)	++ (10 < x ≤ 100)
Cc1cccc2cccc(N3CCc4c(nc(OC[C@@H]5CCCN5C)nc4N4CCC(N=C=NCc5ccon5)CC4)C3)c12 [Example 86, N-(isoxazol-3-ylmethyl)-N-(1-(7-(8-methylnaphthalen-1-yl)-2-(((S)-1-methylpyrrolidin-2-yl)methoxy)-5,6,7,8-tetrahydropyrido[3,4-d]pyrimidin-4-yl)piperidin-4-yl)methanediimine]	+++ (40 < x ≤ 100)	++ (20 < x ≤ 100)	++ (10 < x ≤ 100)			
COCCN=C=NCCCN(C)c1nc(=O)n(-c2c(C)ccnc2C(C)C)c2nc(-c3ccccc3F)c(F)cc12 [Example 56]				++ (20 < x ≤ 40)	++ (20 < x ≤ 100)	++ (10 < x ≤ 100)
Cc1cccc2cccc(N3CCc4c(nc(OC[C@@H]5CCCN5C)nc4N4CCC(N=C=NCc5cccs5)CC4)C3)c12 [Example 94, N-(1-(7-(8-methylnaphthalen-1-yl)-2-(((S)-1-methylpyrrolidin-2-yl)methoxy)-5,6,7,8-tetrahydropyrido[3,4-d]pyrimidin-4-yl)piperidin-4-yl)-N-(thiophen-2-ylmethyl)methanediimine]	+ (0 < x ≤ 20)	+ (0 < x ≤ 20)	+ (0 < x ≤ 10)			
COCC1(N=C=NC2CCN(c3nc(OC[C@@H]4CCCN4C)nc4c3CCN(c3cccc5cccc(C)c35)C4)CC2)CC1 [Example 80, N-(1-(methoxymethyl)cyclopropyl)-N-(1-(7-(8-methylnaphthalen-1-yl)-2-(((S)-1-methylpyrrolidin-2-yl)methoxy)-5,6,7,8-tetrahydropyrido[3,4-d]pyrimidin-4-yl)piperidin-4-yl)methanediimine]	++ (20 < x ≤ 40)	+ (0 < x ≤ 20)	++ (10 < x ≤ 100)			
Cc1ccnc(C(C)C)c1-n1c(=O)nc(N2CCC(CN=C=NCc3ccccc3)CC2)c2cc(F)c(-c3ccccc3F)nc21 [Example 69, 4-(4-((((benzylimino)methylene)amino)methyl)piperidin-1-yl)-6-fluoro-7-(2-fluorophenyl)-1-(2-isopropyl-4-methylpyridin-3-yl)pyrido[2,3-d]pyrimidin-2(1H)-one]	+ (0 < x ≤ 20)	+ (0 < x ≤ 20)	+ (0 < x ≤ 10)			
Cc1cccc2cccc(N3CCc4c(nc(OC[C@@H]5CCCN5C)nc4N4CCC(N=C=NC(C)C)CC4)C3)c12 [Example 23, N-isopropyl-N-(1-(7-(8-methylnaphthalen-1-yl)-2-(((S)-1-methylpyrrolidin-2-yl)methoxy)-5,6,7,8-tetrahydropyrido[3,4-d]pyrimidin-4-yl)piperidin-4-yl)methanediimine]				++ (20 < x ≤ 40)	+ (0 < x ≤ 20)	++ (10 < x ≤ 100)
Cc1cccc2cccc(N3CCc4c(nc(OC[C@@H]5CCCN5C)nc4N4CCC(N=C=NCCN(C)c5ccccc5)CC4)C3)c12 [Example 89, N-methyl-N-(2-((((1-(7-(8-methylnaphthalen-1-yl)-2-(((S)-1-methylpyrrolidin-2-yl)methoxy)-5,6,7,8-tetrahydropyrido[3,4-d]pyrimidin-4-yl)piperidin-4-yl)imino)methylene)amino)ethyl)aniline]	+ (0 < x ≤ 20)	+ (0 < x ≤ 20)	+ (0 < x ≤ 10)			
Cc1cccc2cccc(N3CCc4c(nc(OC[C@@H]5CCCN5C)nc4N4CCN(C(=O)C5CN5)CC4)C3)c12 (stereo partly drawn) [Example 46, aziridin-2-yl(4-(7-(8-methylnaphthalen-1-yl)-2-(((S)-1-methylpyrrolidin-2-yl)methoxy)-5,6,7,8-tetrahydropyrido[3,4-d]pyrimidin-4-yl)piperazin-1-yl)methanone]				+ (0 < x ≤ 20)	+ (0 < x ≤ 20)	+ (0 < x ≤ 10)
Cc1ccnc(C(C)C)c1-n1c(=O)nc(N2CCN(C(=O)[C@@H]3CN3)C[C@@H]2C)c2cc(F)c(-c3c(O)cccc3F)nc21 [Example 66, 4-((S)-4-((S)-aziridine-2-carbonyl)-2-methylpiperazin-1-yl)-6-fluoro-7-(2-fluoro-6-hydroxyphenyl)-1-(2-isopropyl-4-methylpyridin-3-yl)pyrido[2,3-d]pyrimidin-2(1H)-one]	+ (0 < x ≤ 20)	+ (0 < x ≤ 20)	+ (0 < x ≤ 10)			
Cc1cccc2cccc(N3CCc4c(nc(OC[C@@H]5CCCN5C)nc4N(C)CCN=C=NCc4ccccc4)C3)c12 [Example 27, N-(2-(((benzylimino)methylene)amino)ethyl)-N-methyl-7-(8-methylnaphthalen-1-yl)-2-(((S)-1-methylpyrrolidin-2-yl)methoxy)-5,6,7,8-tetrahydropyrido[3,4-d]pyrimidin-4-amine]				++ (20 < x ≤ 40)	+ (0 < x ≤ 20)	++ (10 < x ≤ 100)
CN=C=NCCN(C)c1ncnc2c(F)c(-c3ccccc3F)c(Cl)cc12 [Example 9, 6-chloro-8-fluoro-7-(2-fluorophenyl)-N-methyl-N-(2-(((methylimino)methylene)amino)ethyl)quinazolin-4-amine]				+ (0 < x ≤ 20)	+ (0 < x ≤ 20)	+ (0 < x ≤ 10)
COCCN=C=NC1CCN(c2nc(OC[C@@H]3CCCN3C)nc3c2CCN(c2cccc4cccc(C)c24)C3)CC1 [Example 20, N-(2-methoxyethyl)-N-(1-(7-(8-methylnaphthalen-1-yl)-2-(((S)-1-methylpyrrolidin-2-yl)methoxy)-5,6,7,8-tetrahydropyrido[3,4-d]pyrimidin-4-yl)piperidin-4-yl)methanediimine]				+++ (40 < x ≤ 100)	++ (20 < x ≤ 100)	++ (10 < x ≤ 100)
O=C(C1CN1)N1CCN(c2ncnc3c(F)c(-c4ccccc4F)c(Cl)cc23)CC1 (stereo not drawn) [Example 16, aziridin-2-yl(4-(6-chloro-8-fluoro-7-(2-fluorophenyl)quinazolin-4-yl)piperazin-1-yl)methanone]				+ (0 < x ≤ 20)	+ (0 < x ≤ 20)	+ (0 < x ≤ 10)
Cc1cccc2cccc(N3CCc4c(nc(OC[C@@H]5CCCN5C)nc4N4CCC(B(O)O)CC4)C3)c12 [Example 52, (S)-(1-(7-(8-methylnaphthalen-1-yl)-2-((1-methylpyrrolidin-2-yl)methoxy)-5,6,7,8-tetrahydropyrido[3,4-d]pyrimidin-4-yl)piperidin-4-yl)boronic Acid]				+ (0 < x ≤ 20)	+ (0 < x ≤ 20)	+ (0 < x ≤ 10)
Cc1cccc2cccc(N3CCc4c(nc(OC[C@@H]5CCCN5C)nc4N4CCC(N(C)C(=O)C5CN5)CC4)C3)c12 (stereo partly drawn) [Example 42, N-methyl-(1-(7-(8-methylnaphthalen-1-yl)-2-(((S)-1-methylpyrrolidin-2-yl)methoxy)-5,6,7,8-tetrahydropyrido[3,4-d]pyrimidin-4-yl)piperidin-4-yl)aziridine-2-carboxamide]				+ (0 < x ≤ 20)	+ (0 < x ≤ 20)	+ (0 < x ≤ 10)
Cc1cccc2cccc(N3CCc4c(nc(OC[C@@H]5CCCN5C)nc4N4CCN(C5=NCCO5)[C@@H](CC#N)C4)C3)c12 [Example 38, 2-((S)-1-(4,5-dihydrooxazol-2-yl)-4-(7-(8-methylnaphthalen-1-yl)-2-(((S)-1-methylpyrrolidin-2-yl)methoxy)-5,6,7,8-tetrahydropyrido[3,4-d]pyrimidin-4-yl)piperazin-2-yl)acetonitrile]				0	0	0
